Where two headings read alike, the source gives them in different places.
Columns and labels:
[1] = test system: Arabidopsis thaliana plant comprising the TaQ8GTC0 gene introduced therein; assay: Sensitivity of Arabidopsis thaliana comprising the TaQ8GTC0 gene to herbicides on MS agar medium; type: in vivo; details: for growth of the Arabidopsis thaliana plant comprising the TaQ8GTC0 gene: KLB-718 1-1-5, 22° C.
Protocol: A medium was prepared as described below, so as to examine the pyroxasulfone resistance of the Arabidopsis thaliana plant comprising the TaQ8GTC0 gene introduced therein. At the outset, the Murashige-Skoog (MS) media (1 bag), thiamin hydrochloride (3 mg), nicotinic acid (5 mg), pyridoxin hydrochloride (0.5 mg), and sucrose (10 g) were added into a 1-liter beaker, a pH was adjusted to 5.7, the volume of the content was adjusted to 1 liter, and 8 g (0.8%) of agar was added. The resultant was autoclaved and cooled to room temperature, and pyroxasulfone (an acetone solution) was added thereto. A 30-ml fraction thereof was fractionated into a No. 2 square plate to prepare an MS medium containing pyroxasulfone at a given concentration.
Pyroxasulfone sensitivity of transgenic Arabidopsis thaliana plants was tested with the use of the medium prepared above as described below. A necessary amount of Arabidopsis thaliana dry seeds was agitated in 70% ethanol for 2 minutes and in hypochlorous acid containing 0.02% Triton-X-100 for 15 minutes, followed by washing with sterile water 10 times. Subsequently, the seeds were suspended in 1 ml of the autoclaved 0.1% agar solution, the suspension was thoroughly mixed to prepare a homogeneous solution, and a total of 30 seeds were each placed on the medium surface. The resultant was sealed with a surgical tape, allowed to stand at 4° C. for 2 days, and then transferred to 22° C. for germination.
On the basis of the concentrations above, sensitivity of the Arabidopsis thaliana plant comprising the TaQ8GTC0 gene introduced therein to VLCFAE-inhibiting herbicides was examined. The results are show in FIGS. 13 and 14. The photographs shown in FIGS. 13 and 14 were taken after the plants were grown at 22° C. for 14 days.

[2] = test system: rice plants comprising the TaQ8GTC0 gene introduced therein; assay: Herbicide resistance test of rice plants comprising the TaQ8GTC0 gene, gellan gum medium, plant height; type: in vivo; details: for IC50: Oryza sativa, read-out: I50
Protocol: Hoagland's mix and 3 g of gellan gum were suspended in 1 liter of distilled water and thoroughly dissolved therein by heating in a microwave. A fraction of the resultant (15 ml) was injected into a tubular bottle before it was cooled (30 ml was injected into the plate). The herbicide was simultaneously added at the time of injection of the gellan gum medium into the tubular bottle or plate, followed by thorough mixing. Rice hulls were soaked in a 50-fold diluted sodium hypochlorite solution (antiformin) (Wako) for approximately 20 minutes and then thoroughly washed with water. Sterilized seeds were soaked in distilled water and allowed to stand at 27° C. for germination (for approximately 2 days). Germinating seeds were softly planted in the gellan gum medium (plate) containing 0.25 μM BS. These samples, together with a beaker filled with distilled water, were placed in a transparent case, which was then covered with a clear plastic wrap. These samples were grown at 27° C. under fluorescent light illumination (14 hours of a light period and 10 hours of a dark period) for 2 days. Thereafter, rice seeds that were determined to have BS resistance with the use of root elongation as the indicator were transferred to gellan gum media containing pyroxasulfone (tubal bottles) at the final concentrations of 10^−8, 10^−7, 10^−6, and 10^−5M, respectively. Subsequently, these samples, together with a beaker filled with distilled water, were placed in a transparent case, which was then covered with a clear plastic wrap. These samples were grown at 27° C. under fluorescent light illumination (14 hours of a light period and 10 hours of a dark period) for 4 to 5 days, and the plant heights were then measured. Inhibition of shoot growth was determined by comparison to control plants grown in the absence of pyroxasulfone and the concentration for required 50% inhibition (IC50) was determined by the Probit method.
Resistance of rice plants comprising the TaQ8GTC0 gene introduced therein to VLCFAE-inhibiting herbicides was tested in the same manner as with the pyroxasulfone resistance test described above.
FIGS. 7-1 to 7-6 show the results. In FIGS. 7-1 to 7-6, the concentration of 0 μM, the minimal concentration shown in Table 4 (×1), the concentration 4 times higher than the minimal concentration shown in Table 4 (×4), and the concentration 16 times higher than the minimal concentration shown in Table 4 (×16) are shown successively from left to right.

With `Cn1nc(C(F)(F)F)c(CS(=O)(=O)C2=NOC(C)(C)C2)c1OC(F)F` [Pyroxasulfone, 3-[5-(difluoromethoxy)-1-methyl-3-(trifluoromethyl)pyrazol-4-ylmethylsulfonyl]-4,5-dihydro-5,5-dimethyl-1,2-oxazole] the “sensitivity of the Arabidopsis thaliana plant comprising the TaQ8GTC0 gene to VLCFAE-inhibiting herbicides” value ([1]; KLB-718 1-1-5, concentrations of Table 5, 22° C., 14 days) was “strong resistance”, the “pyroxasulfone resistance relative to wild-type (Columbia-0)” value ([1]; all 7 lines used in the test) was “at least 10 times” and the “growth of the Arabidopsis thaliana plant comprising the TaQ8GTC0 gene” value ([1]; pyroxasulfone 1 μM, 14 days) was “in the same manner as with the Control”. The “growth of the Arabidopsis thaliana plant comprising the TaQ8GTC0 gene” value ([1]; pyroxasulfone 10 μM, 14 days) was “sufficiently grew”, the “pyroxasulfone resistance relative to wild-type plants” value ([2]; 16 lines among 18 lines used in the test) was at least 10 times and the IC50 ([2]; lineage #1-3) was 1140 nM. The IC50 ([2]; lineage #1-4) was 1310 nM, the IC50 ([2]; lineage #1-7) was 969 nM and the IC50 ([2]; lineage #1-10) was 510 nM. The IC50 ([2]; lineage #2-6) was 968 nM, the IC50 ([2]; lineage #2-9) was 1090 nM and the IC50 ([2]; lineage #3-4) was 1720 nM. For the same compound, the IC50 ([2]; lineage #3-9) was 1010 nM, the IC50 ([2]; lineage #3-12) was 67 nM and the IC50 ([2]; lineage #3-13) was 13800 nM. It also gave an IC50 ([2]; lineage #4-1) of 496 nM, an IC50 ([2]; lineage #4-3) of 4320 nM and an IC50 ([2]; lineage #4-7) of 7150 nM. For the same compound, the IC50 ([2]; lineage #4-10) was 2120 nM, the IC50 ([2]; lineage #4-13) was 3850 nM and the IC50 ([2]; lineage #4-14) was 45 nM. The IC50 ([2]; lineage #5-1) was 968 nM, the IC50 ([2]; lineage #5-11) was 983 nM and the “Pyroxasulfone resistance (ratio of IC50 of transformed rice to IC50 of wild-type rice)” value ([2]; lineage #1-3) was 29. The “Pyroxasulfone resistance (ratio of IC50 of transformed rice to IC50 of wild-type rice)” value ([2]; lineage #1-4) was 33, the “Pyroxasulfone resistance (ratio of IC50 of transformed rice to IC50 of wild-type rice)” value ([2]; lineage #1-7) was 25 and the “Pyroxasulfone resistance (ratio of IC50 of transformed rice to IC50 of wild-type rice)” value ([2]; lineage #1-10) was 13. For the same compound, the “Pyroxasulfone resistance (ratio of IC50 of transformed rice to IC50 of wild-type rice)” value ([2]; lineage #2-6) was 25, the “Pyroxasulfone resistance (ratio of IC50 of transformed rice to IC50 of wild-type rice)” value ([2]; lineage #2-9) was 28 and the “Pyroxasulfone resistance (ratio of IC50 of transformed rice to IC50 of wild-type rice)” value ([2]; lineage #3-4) was 44. The “Pyroxasulfone resistance (ratio of IC50 of transformed rice to IC50 of wild-type rice)” value ([2]; lineage #3-9) was 26, the “Pyroxasulfone resistance (ratio of IC50 of transformed rice to IC50 of wild-type rice)” value ([2]; lineage #3-12) was 2 and the “Pyroxasulfone resistance (ratio of IC50 of transformed rice to IC50 of wild-type rice)” value ([2]; lineage #3-13) was 353. The “Pyroxasulfone resistance (ratio of IC50 of transformed rice to IC50 of wild-type rice)” value ([2]; lineage #3-13, listed as pyroxasulfone) was “approximately 350”, the “growth of rice plants comprising the TaQ8GTC0 gene on herbicide medium” value ([2]; lineage #3-13, minimal concentration (×1), ×4 and ×16 of Table 4) was “the growth thereof was not affected at the maximal test concentration” and the “Pyroxasulfone resistance (ratio of IC50 of transformed rice to IC50 of wild-type rice)” value ([2]; lineage #4-1) was 13. For the same compound, the “Pyroxasulfone resistance (ratio of IC50 of transformed rice to IC50 of wild-type rice)” value ([2]; lineage #4-3) was 111, the “Pyroxasulfone resistance (ratio of IC50 of transformed rice to IC50 of wild-type rice)” value ([2]; lineage #4-7) was 183 and the resistance to pyroxasulfone ([2]; lineage #4-7, no data disclosed) was “high level of resistance”. The “Pyroxasulfone resistance (ratio of IC50 of transformed rice to IC50 of wild-type rice)” value ([2]; lineage #4-10) was 54, the “Pyroxasulfone resistance (ratio of IC50 of transformed rice to IC50 of wild-type rice)” value ([2]; lineage #4-13) was 99 and the “Pyroxasulfone resistance (ratio of IC50 of transformed rice to IC50 of wild-type rice)” value ([2]; lineage #4-14) was 1. For the same compound, the “Pyroxasulfone resistance (ratio of IC50 of transformed rice to IC50 of wild-type rice)” value ([2]; lineage #5-1) was 25 and the “Pyroxasulfone resistance (ratio of IC50 of transformed rice to IC50 of wild-type rice)” value ([2]; lineage #5-11) was 25.

Reference: US11198710B2, “Transgenic plant having herbicide resistance” (priority 2016, dated 2021)
